{"source": "patent US11013726B2", "about": "(Arbutus Biopharma Corporation, priority 2016, dated 2021)", "test_system": "HBsAg", "test": "In vitro combination study, HBsAg CLIA, MacSynergy II", "assay_type": "cell-based, hepatitis B virus", "procedure": "In vitro combination studies were conducted using the method of Prichard & Shipman, 1990, Antiviral Res. 14(4-5):181-205, and Prichard, et al., MacSynergy II). The HepG2.2.15 cell culture system is a cell line derived from human hepatoblastoma HepG2 cells, that have been stably transfected with the adw2-subtype HBV genome (Sells, et al., 1987, Proc. Natl. Acad. Sci. U.S.A 84:1005-1009). HepG2.2.15 cells secrete Dane-like viral particles, produce HBV DNA, and produce the viral proteins, HBeAg and HBsAg.\nNon-limiting examples of HBV RNA destabilizers are Compound A and Compound B. The EC50 values of these agents are shown in Table 12. Although inhibition of HBV DNA, RNA and proteins can be determined in the presence of the compounds of the invention and LNPs (both referred to herein as “agents”), the assay that can quantitatively measure the level of HBsAg was used in this study. To test the agent combinations, HepG2.2.15 (30,000 cells/well) were plated in 96 well tissue-culture treated microtiter plates in DMEM+L-Glutamine medium supplemented with 1% penicillin-streptomycin, 20 μg/mL geneticin (G418), 10% fetal bovine serum, and incubated in a humidified incubator at 37° C. and 5% CO2 overnight. The next day, the cells were replenished with fresh medium followed by the addition of compound of the invention (dissolved in 100% DMSO), and LNP (dissolved in 100% RPMI medium). The agents were added to cells in a checkerboard fashion. The microtiter cell plates were incubated for a total duration of 6 days in a humidified incubator at 37° C. and 5% CO2. On the 3rd day of incubation, the cells were replenished with fresh medium and agents. The serial dilutions spanned concentration ranges respective to the EC50 value of each agent, with the final DMSO concentration of the assay being 0.5%. In addition to combination testing of the agents in a checkerboard fashion, the compound and LNP were also tested alone.\nUntreated positive control samples (0.5% DMSO in media) were included on each plate in multiple wells. Following a 6 day-incubation, media was removed from treated cells for use in an HBsAg chemiluminescence immunoassay (CLIA) (Autobio Diagnostics, Cat No. CL0310-2). An HBsAg standard curve was generated to verify that the levels of HBsAg quantification were within the detection limits of the assay. The remaining inhibitor-treated cells were assessed for cytotoxicity by determination of the intracellular adenosine triphosphate (ATP) using a Cell-Titer Glo reagent (Promega) as per manufacturers instructions and by microscopic analysis of the cells throughout the duration of inhibitor treatment. Cell viability was calculated as a percentage of the untreated positive control wells.\nThe plates were read using an EnVision multimode plate reader (PerkinElmer Model 2104). […] The RLU data from the single agent treated cells were analyzed using XL-Fit module in Microsoft Excel to determine EC50 values using a 4-parameter curve fitting algorithm.", "key": {"[1]": {"conditions": "Compound A 0.0001 μM, LNP-1 0.0025, 0.00079, 0.00025, 7.9E−05, 2.5E−05, 0 μM"}, "[2]": {"conditions": "Compound A 0.000316 μM, LNP-1 0.0025, 0.00079, 0.00025, 7.9E−05, 2.5E−05, 0 μM"}, "[3]": {"conditions": "Compound A 0.001 μM, LNP-1 0.0025, 0.00079, 0.00025, 7.9E−05, 2.5E−05, 0 μM"}, "[4]": {"conditions": "Compound A 0.00316 μM, LNP-1 0.0025, 0.00079, 0.00025, 7.9E−05, 2.5E−05, 0 μM"}, "[5]": {"conditions": "Compound A 0.1 μM, LNP-1 0.0025, 0.00079, 0.00025, 7.9E−05, 2.5E−05, 0 μM"}, "[6]": {"conditions": "Compound A 1.0E−05 μM, LNP-1 0.0025, 0.00079, 0.00025, 7.9E−05, 2.5E−05, 0 μM"}, "[7]": {"conditions": "Compound A 1.0E−05 μM, LNP-2 0.0025, 0.00079, 0.00025, 7.9E−05, 2.5E−05, 0 μM"}, "[8]": {"conditions": "Compound A 1.00E−06 μM, LNP-1 0.0025, 0.00079, 0.00025, 7.9E−05, 2.5E−05, 0 μM"}, "[9]": {"conditions": "Compound A 1.00E−06 μM, LNP-2 0.0025, 0.00079, 0.00025, 7.9E−05, 2.5E−05, 0 μM"}, "[10]": {"conditions": "Compound A 3.16E−06 μM, LNP-1 0.0025, 0.00079, 0.00025, 7.9E−05, 2.5E−05, 0 μM"}, "[11]": {"conditions": "Compound A 3.16E−06 μM, LNP-2 0.0025, 0.00079, 0.00025, 7.9E−05, 2.5E−05, 0 μM"}, "[12]": {"conditions": "Compound A 3.17E−05 μM, LNP-1 0.0025, 0.00079, 0.00025, 7.9E−05, 2.5E−05, 0 μM"}, "[13]": {"conditions": "Compound A 3.17E−05 μM, LNP-2 0.0025, 0.00079, 0.00025, 7.9E−05, 2.5E−05, 0 μM"}}}
{"smiles": "COCCCOc1cc2c(nc1OC)-c1cc(=O)c(C(=O)O)cn1[C@H](C(C)C)C2", "note": "[Compound A]", "values": [{"measurement": "Additive % Inhibition (HBsAg) versus negative control", "setting": "[1]", "value": 47.52, "unit": "%"}, {"measurement": "Avg % Inhibition (HBsAg) versus negative control", "setting": "[1]", "value": 47.52, "unit": "%"}, {"measurement": "Additive % Inhibition (HBsAg) versus negative control", "setting": "Compound A 0.0001 μM, LNP-2 0.0025, 0.00079, 0.00025, 7.9E−05, 2.5E−05, 0 μM", "value": 48.07, "unit": "%"}, {"measurement": "Avg % Inhibition (HBsAg) versus negative control", "setting": "Compound A 0.0001 μM, rows r14-r19 = LNP-2 0.0025, 0.00079, 0.00025, 7.9E−05, 2.5E−05, 0 μM", "value": 48.07, "unit": "%"}, {"measurement": "Additive % Inhibition (HBsAg) versus negative control", "setting": "[2]", "value": 66.21, "unit": "%"}, {"measurement": "Avg % Inhibition (HBsAg) versus negative control", "setting": "[2]", "value": 66.21, "unit": "%"}, {"measurement": "Additive % Inhibition (HBsAg) versus negative control", "setting": "Compound A 0.000316 μM, LNP-2 0.0025, 0.00079, 0.00025, 7.9E−05, 2.5E−05, 0 μM", "value": 74.6, "unit": "%"}, {"measurement": "Avg % Inhibition (HBsAg) versus negative control", "setting": "Compound A 0.000316 μM, rows r14-r19 = LNP-2 0.0025, 0.00079, 0.00025, 7.9E−05, 2.5E−05, 0 μM", "value": 74.6, "unit": "%"}, {"measurement": "Additive % Inhibition (HBsAg) versus negative control", "setting": "[3]", "value": 84.38, "unit": "%"}, {"measurement": "Avg % Inhibition (HBsAg) versus negative control", "setting": "[3]", "value": 84.38, "unit": "%"}, {"measurement": "Additive % Inhibition (HBsAg) versus negative control", "setting": "Compound A 0.001 μM, LNP-2 0.0025, 0.00079, 0.00025, 7.9E−05, 2.5E−05, 0 μM", "value": 87.41, "unit": "%"}, {"measurement": "Avg % Inhibition (HBsAg) versus negative control", "setting": "Compound A 0.001 μM, rows r14-r19 = LNP-2 0.0025, 0.00079, 0.00025, 7.9E−05, 2.5E−05, 0 μM", "value": 87.41, "unit": "%"}, {"measurement": "Additive % Inhibition (HBsAg) versus negative control", "setting": "[4]", "value": 90.37, "unit": "%"}, {"measurement": "Avg % Inhibition (HBsAg) versus negative control", "setting": "[4]", "value": 90.37, "unit": "%"}, {"measurement": "Additive % Inhibition (HBsAg) versus negative control", "setting": "Compound A 0.00316 μM, LNP-2 0.0025, 0.00079, 0.00025, 7.9E−05, 2.5E−05, 0 μM", "value": 92.04, "unit": "%"}, {"measurement": "Avg % Inhibition (HBsAg) versus negative control", "setting": "Compound A 0.00316 μM, rows r14-r19 = LNP-2 0.0025, 0.00079, 0.00025, 7.9E−05, 2.5E−05, 0 μM", "value": 92.04, "unit": "%"}, {"measurement": "Additive % Inhibition (HBsAg) versus negative control", "setting": "[5]", "value": 92.38, "unit": "%"}, {"measurement": "Avg % Inhibition (HBsAg) versus negative control", "setting": "[5]", "value": 92.38, "unit": "%"}, {"measurement": "Additive % Inhibition (HBsAg) versus negative control", "setting": "Compound A 0.1 μM, LNP-2 0.0025, 0.00079, 0.00025, 7.9E−05, 2.5E−05, 0 μM", "value": 93.74, "unit": "%"}, {"measurement": "Avg % Inhibition (HBsAg) versus negative control", "setting": "Compound A 0.1 μM, rows r14-r19 = LNP-2 0.0025, 0.00079, 0.00025, 7.9E−05, 2.5E−05, 0 μM", "value": 93.74, "unit": "%"}, {"measurement": "Additive % Inhibition (HBsAg) versus negative control", "setting": "[6]", "value": 16.81, "unit": "%"}, {"measurement": "Avg % Inhibition (HBsAg) versus negative control", "setting": "[6]", "value": 16.81, "unit": "%"}, {"measurement": "Additive % Inhibition (HBsAg) versus negative control", "setting": "[7]", "value": 27.46, "unit": "%"}, {"measurement": "Avg % Inhibition (HBsAg) versus negative control", "setting": "[7]", "value": 27.46, "unit": "%"}, {"measurement": "Additive % Inhibition (HBsAg) versus negative control", "setting": "[8]", "value": 17.73, "unit": "%"}, {"measurement": "Avg % Inhibition (HBsAg) versus negative control", "setting": "[8]", "value": 17.73, "unit": "%"}, {"measurement": "Additive % Inhibition (HBsAg) versus negative control", "setting": "[9]", "value": 16, "unit": "%"}, {"measurement": "Avg % Inhibition (HBsAg) versus negative control", "setting": "[9]", "value": 16, "unit": "%"}, {"measurement": "Additive % Inhibition (HBsAg) versus negative control", "setting": "[10]", "value": 8.39, "unit": "%"}, {"measurement": "Avg % Inhibition (HBsAg) versus negative control", "setting": "[10]", "value": 8.39, "unit": "%"}, {"measurement": "Additive % Inhibition (HBsAg) versus negative control", "setting": "[11]", "value": 20.62, "unit": "%"}, {"measurement": "Avg % Inhibition (HBsAg) versus negative control", "setting": "[11]", "value": 20.62, "unit": "%"}, {"measurement": "Additive % Inhibition (HBsAg) versus negative control", "setting": "[12]", "value": 23.55, "unit": "%"}, {"measurement": "Avg % Inhibition (HBsAg) versus negative control", "setting": "[12]", "value": 23.55, "unit": "%"}, {"measurement": "Additive % Inhibition (HBsAg) versus negative control", "setting": "[13]", "value": 34.41, "unit": "%"}, {"measurement": "Avg % Inhibition (HBsAg) versus negative control", "setting": "[13]", "value": 34.41, "unit": "%"}, {"measurement": "EC50", "setting": "HepG2.2.15 cell culture, HBsAg quantitation by CLIA, read-out: 1st Inhibitor EC50", "value": 1, "unit": "nM"}]}
